This assay in a line: Concentration required for the in vitro inhibition of Acyl coenzyme A:cholesterol acyltransferase (ACAT) in intestinal microsomes isolated from cholesterol-fed rabbits.

We go through two compounds from BindingDB's records for doi:10.1016/0960-894X(95)00024-N (1995).

The term IC50 denotes the midpoint of a concentration-inhibition curve. Read a low IC50 as inhibition by little substance. Compound `CCCCCCCCCCCCCCCn1nnc(C(NC(=O)c2c(C)cccc2C)c2ccccc2)n1` (configuration not stated) [2,6-Dimethyl-N-[(2-pentadecyl-2H-tetrazol-5-yl)-phenyl-methyl]-benzamide] returned an IC50 of 0.44 µM.
In the case of `CCCCCCCn1nnc(C(NC(=O)c2c(C)cccc2C)c2ccccc2)n1` (configuration not stated) [N-[(2-Heptyl-2H-tetrazol-5-yl)-phenyl-methyl]-2,6-dimethyl-benzamide] it was 3.7 µM.
